Experimental data: patent US20240245694A1, “Tricyclic Compounds and their Uses” (Novartis AG, priority 2022, published 2024)

Tests used:
[1] = target: WRN helicase (core helicase motif aa N517-P1238) (Homo sapiens (Human), UniProt Q14191); test: WRN ATPase assay (ADP-Glo), DNA dependent ATP hydrolysis; assay type: biochemical; settings: 3 hours pre-incubation, 300 micromolar ATP, FLAP26 ssDNA; geometric means of at least 2 determinations
Outline: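 Uses the WRN core helicase (aa N517-P1238) with single-strand 45-mer FLAP26 DNA in Tris pH 7.5, MgCl2, NaCl, BSA and pluronic buffer. Compound was pre-incubated 3 h with enzyme and ATP; reaction then run with 10 nM WRN, 0.2 nM FLAP26 and 300 µM ATP for 30 min at room temperature. ADP quantified by ADP-Glo luminescence; IC50 from duplicate 4-parameter fits, geometric mean of ≥2 runs.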

SW48 cells = test: Proliferation assay SW48 (CellTiterGlo, 96 hours); assay type: cell-based; settings: Homo sapiens
Outline: (§1)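 Cells in RPMI-1640/10% FCS were seeded overnight (SW48 2'000, DLD1-WRN-KO 1'500 cells/well), then exposed to eight 3-fold compound dilutions at 0.1% DMSO. ATP luminescence relative to a day-0 plate gives % growth (0% stasis, −100% complete kill). GI50 is the geometric mean of ≥2 independent replicates.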

DLD1-WRN-KO cells = test: Proliferation assay DLD1-WRN-KO (CellTiterGlo, 96 hours), off-target effects; assay type: cell-based; settings: Homo sapiens
Outline: as §1

Sequence of WRN helicase (core helicase motif aa N517-P1238) (Q14191 517-1238): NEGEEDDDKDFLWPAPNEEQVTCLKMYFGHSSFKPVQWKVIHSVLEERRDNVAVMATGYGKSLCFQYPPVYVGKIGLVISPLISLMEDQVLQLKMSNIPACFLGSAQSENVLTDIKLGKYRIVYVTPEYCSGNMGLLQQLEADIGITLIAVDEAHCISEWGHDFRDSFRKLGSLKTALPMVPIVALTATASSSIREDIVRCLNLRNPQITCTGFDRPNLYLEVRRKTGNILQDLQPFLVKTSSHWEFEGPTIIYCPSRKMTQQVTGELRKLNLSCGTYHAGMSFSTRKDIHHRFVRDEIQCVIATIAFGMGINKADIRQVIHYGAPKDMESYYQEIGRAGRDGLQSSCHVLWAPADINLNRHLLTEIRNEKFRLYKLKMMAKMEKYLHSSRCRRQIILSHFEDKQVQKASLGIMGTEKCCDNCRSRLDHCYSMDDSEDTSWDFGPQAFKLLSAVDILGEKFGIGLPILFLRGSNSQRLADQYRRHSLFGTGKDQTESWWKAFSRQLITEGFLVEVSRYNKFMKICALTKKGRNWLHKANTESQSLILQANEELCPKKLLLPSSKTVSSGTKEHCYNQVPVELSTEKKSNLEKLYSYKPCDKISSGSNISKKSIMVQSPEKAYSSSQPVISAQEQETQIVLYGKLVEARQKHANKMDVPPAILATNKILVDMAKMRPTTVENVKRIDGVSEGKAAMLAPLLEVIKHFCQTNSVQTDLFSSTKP

SMILES	IC50 [1]	GI50 (SW48 cells)	GI50 (DLD1-WRN-KO cells)
Cc1cc(C(F)(F)F)ccc1NC(=O)[C@@H]1C[C@H](C)c2c(N3CCN(C(=O)c4ncccc4O)CC3)c(=O)n3nc(C4=CCOCC4)nc3n21 [Example 15B, (7S,9S)-2-(3,6-dihydro-2H-pyran-4-yl)-6-(4-(3-hydroxypicolinoyl)piperazin-1-yl)-7-methyl-N-(2-methyl-4-(trifluoromethyl)phenyl)-5-oxo-5,7,8,9-tetrahydropyrrolo[1,2-c][1,2,4]triazolo[1,5-a]pyrimidine-9-carboxamide]	18000 nM	8000 nM	> 10000 nM
Cc1cc(C(F)(F)F)ccc1NC(=O)[C@H]1C[C@H](C)c2c(N3CCN(C(=O)c4ncccc4O)CC3)c(=O)n3nc(C4=CCOCC4)nc3n21 [Example 15C, (7S,9R)-2-(3,6-dihydro-2H-pyran-4-yl)-6-(4-(3-hydroxypicolinoyl)piperazin-1-yl)-7-methyl-N-(2-methyl-4-(trifluoromethyl)phenyl)-5-oxo-5,7,8,9-tetrahydropyrrolo[1,2-c][1,2,4]triazolo[1,5-a]pyrimidine-9-carboxamide]	100 nM	400 nM	> 10000 nM
Cc1cc(C(F)(F)F)ccc1NC(=O)[C@@H]1C[C@@H](C)c2c(N3CCN(C(=O)c4ncccc4O)CC3)c(=O)n3nc(C4=CCOCC4)nc3n21 [Example 15D, (7R,9S)-2-(3,6-dihydro-2H-pyran-4-yl)-6-(4-(3-hydroxypicolinoyl)piperazin-1-yl)-7-methyl-N-(2-methyl-4-(trifluoromethyl)phenyl)-5-oxo-5,7,8,9-tetrahydropyrrolo[1,2-c][1,2,4]triazolo[1,5-a]pyrimidine-9-carboxamide]	61000 nM	> 10000 nM	> 10000 nM
Cc1cc(C(F)(F)F)ccc1NC(=O)[C@H]1C[C@@H](C)c2c(N3CCN(C(=O)c4nccc(F)c4O)CC3)c(=O)n3nc(C4=CCOCC4)nc3n21 [Example 16, (7R,9R)-2-(3,6-dihydro-2H-pyran-4-yl)-6-(4-(4-fluoro-3-hydroxypicolinoyl)piperazin-1-yl)-7-methyl-N-(2-methyl-4-(trifluoromethyl)phenyl)-5-oxo-5,7,8,9-tetrahydropyrrolo[1,2-c][1,2,4]triazolo[1,5-a]pyrimidine-9-carboxamide]	40 nM	10 nM	> 10000 nM
Cc1cc(C(F)(F)F)ccc1NC(=O)[C@H]1C[C@@H](C)c2c(N3CCN(C(=O)c4ncnc(C)c4O)CC3)c(=O)n3nc(C4=CCOCC4)nc3n21 [Example 17, (7R,9R)-2-(3,6-dihydro-2H-pyran-4-yl)-6-(4-(5-hydroxy-6-methylpyrimidine-4-carbonyl)piperazin-1-yl)-7-methyl-N-(2-methyl-4-(trifluoromethyl)phenyl)-5-oxo-5,7,8,9-tetrahydropyrrolo[1,2-c][1,2,4]triazolo[1,5-a]pyrimidine-9-carboxamide]	60 nM	20 nM	> 10000 nM
Cc1ncnc(C(=O)N2CCN(c3c4n(c5nc(C6=CCOCC6)nn5c3=O)[C@H](C(=O)Nc3ccc(C(F)(F)F)cc3Cl)C[C@@H]4C)C[C@H]2C)c1O [Example 18B, (7S,9S)—N-(2-chloro-4-(trifluoromethyl)phenyl)-2-(3,6-dihydro-2H-pyran-4-yl)-6-((R)-4-(5-hydroxy-6-methylpyrimidine-4-carbonyl)-3-methylpiperazin-1-yl)-7-methyl-5-oxo-5,7,8,9-tetrahydropyrrolo[1,2-c][1,2,4]triazolo[1,5-a]pyrimidine-9-carboxamide]	36000 nM	> 10000 nM	> 10000 nM
Cc1ncnc(C(=O)N2CCN(c3c4n(c5nc(C6=CCOCC6)nn5c3=O)[C@H](C(=O)Nc3ccc(C(F)(F)F)cc3Cl)C[C@H]4C)C[C@H]2C)c1O [Example 18C, (7R,9S)—N-(2-chloro-4-(trifluoromethyl)phenyl)-2-(3,6-dihydro-2H-pyran-4-yl)-6-((R)-4-(5-hydroxy-6-methylpyrimidine-4-carbonyl)-3-methylpiperazin-1-yl)-7-methyl-5-oxo-5,7,8,9-tetrahydropyrrolo[1,2-c][1,2,4]triazolo[1,5-a]pyrimidine-9-carboxamide]	> 10000 nM	> 10000 nM	> 10000 nM
Cc1ncnc(C(=O)N2CCN(c3c4n(c5nc(C6=CCOCC6)nn5c3=O)[C@@H](C(=O)Nc3ccc(C(F)(F)F)cc3Cl)C[C@@H]4C)C[C@H]2C)c1O [Example 18D, (7S,9R)—N-(2-chloro-4-(trifluoromethyl)phenyl)-2-(3,6-dihydro-2H-pyran-4-yl)-6-((R)-4-(5-hydroxy-6-methylpyrimidine-4-carbonyl)-3-methylpiperazin-1-yl)-7-methyl-5-oxo-5,7,8,9-tetrahydropyrrolo[1,2-c][1,2,4]triazolo[1,5-a]pyrimidine-9-carboxamide]	100 nM	500 nM	> 10000 nM

Continued, values first:

IC50 [1]	GI50 (SW48 cells)	GI50 (DLD1-WRN-KO cells)	SMILES
40 nM	200 nM	> 10000 nM	Cc1cc(C(F)(F)F)ccc1NC(=O)[C@H]1CCc2c(N3CCN(C(=O)c4nccc(Cl)c4O)CC3)c(=O)n3nc(C4=CCOCC4)nc3n21 [Example 19A, (R)-6-(4-(4-chloro-3-hydroxypicolinoyl)piperazin-1-yl)-2-(3,6-dihydro-2H-pyran-4-yl)-N-(2-methyl-4-(trifluoromethyl)phenyl)-5-oxo-5,7,8,9-tetrahydropyrrolo[1,2-c][1,2,4]triazolo[1,5-a]pyrimidine-9-carboxamide]
90 nM	300 nM	> 10000 nM	Cc1cc(C(F)(F)F)ccc1NC(=O)[C@H]1CCc2c(N3CCN(C(=O)c4ncccc4O)CC3)c(=O)n3nc(C4=CCOCC4)nc3n21 [Example 20A, (R)-2-(3,6-dihydro-2H-pyran-4-yl)-6-(4-(3-hydroxypicolinoyl)piperazin-1-yl)-N-(2-methyl-4-(trifluoromethyl)phenyl)-5-oxo-5,7,8,9-tetrahydropyrrolo[1,2-c][1,2,4]triazolo[1,5-a]pyrimidine-9-carboxamide]
> 10000 nM	> 10000 nM	> 10000 nM	Cc1cc(C(F)(F)F)ccc1NC(=O)[C@@H]1CCc2c(N3CCN(C(=O)c4ncccc4O)CC3)c(=O)n3nc(C4=CCOCC4)nc3n21 [Example 20B, (S)-2-(3,6-dihydro-2H-pyran-4-yl)-6-(4-(3-hydroxypicolinoyl)piperazin-1-yl)-N-(2-methyl-4-(trifluoromethyl)phenyl)-5-oxo-5,7,8,9-tetrahydropyrrolo[1,2-c][1,2,4]triazolo[1,5-a]pyrimidine-9-carboxamide]
40 nM	10 nM	> 10000 nM	Cc1ncnc(C(=O)N2CCN(c3c4n(c5nc(C6=CCOCC6)nn5c3=O)[C@@H](C(=O)Nc3ccc(C(F)(F)F)cc3Cl)C[C@@H]4C)[C@H]3CC[C@@H]32)c1O [Example 21C, (7S,9R)—N-(2-chloro-4-(trifluoromethyl)phenyl)-2-(3,6-dihydro-2H-pyran-4-yl)-6-((1S,6S)-5-(5-hydroxy-6-methylpyrimidine-4-carbonyl)-2,5-diazabicyclo[4.2.0]octan-2-yl)-7-methyl-5-oxo-5,7,8,9-tetrahydropyrrolo[1,2-c][1,2,4]triazolo[1,5-a]pyrimidine-9-carboxamide]
50 nM	200 nM	> 10000 nM	O=C(Nc1ccc(C(F)(F)F)cc1)[C@H]1CCc2c(N3CCN(C(=O)c4ncccc4O)CC3)c(=O)n3nc(C4=CCOCC4)nc3n21 [Example 23A, (R)-2-(3,6-dihydro-2H-pyran-4-yl)-6-(4-(3-hydroxypicolinoyl)piperazin-1-yl)-5-oxo-N-(4-(trifluoromethyl)phenyl)-5,7,8,9-tetrahydropyrrolo[1,2-c][1,2,4]triazolo[1,5-a]pyrimidine-9-carboxamide]
69000 nM	> 10000 nM	> 10000 nM	O=C(Nc1ccc(C(F)(F)F)cc1)[C@@H]1CCc2c(N3CCN(C(=O)c4ncccc4O)CC3)c(=O)n3nc(C4=CCOCC4)nc3n21 [Example 23B, (S)-2-(3,6-dihydro-2H-pyran-4-yl)-6-(4-(3-hydroxypicolinoyl)piperazin-1-yl)-5-oxo-N-(4-(trifluoromethyl)phenyl)-5,7,8,9-tetrahydropyrrolo[1,2-c][1,2,4]triazolo[1,5-a]pyrimidine-9-carboxamide]
